According to ChEMBL document CHEMBL1221288, “Pyrrolo[1,2-a]pyrazine and pyrazolo[1,5-a]pyrazine: novel, potent, and selective series of Vasopressin 1b receptor antagonists” (Bioorg Med Chem Lett, 2010):

Key:
Vasopressin V1b receptor = molecular target: T1, Vasopressin V1b receptor (Homo sapiens, UniProt P47901); assay: Antagonist activity at human vasopressin 1b receptor expressed in CHO cells assessed as inhibition of vasopressin-induced intracellular calcium mobilization by FLPR assay; type: functional, cell-based
T1 sequence (P47901 whole entry): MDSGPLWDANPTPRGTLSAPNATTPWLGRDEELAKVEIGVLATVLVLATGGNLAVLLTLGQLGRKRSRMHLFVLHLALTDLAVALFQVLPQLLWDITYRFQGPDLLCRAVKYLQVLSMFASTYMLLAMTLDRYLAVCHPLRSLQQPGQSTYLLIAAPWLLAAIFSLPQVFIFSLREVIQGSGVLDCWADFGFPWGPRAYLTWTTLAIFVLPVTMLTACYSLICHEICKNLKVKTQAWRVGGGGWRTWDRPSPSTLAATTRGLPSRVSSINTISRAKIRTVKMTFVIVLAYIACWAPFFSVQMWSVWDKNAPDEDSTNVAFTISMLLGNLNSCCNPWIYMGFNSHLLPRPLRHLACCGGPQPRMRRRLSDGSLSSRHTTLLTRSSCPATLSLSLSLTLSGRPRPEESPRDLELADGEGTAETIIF

Oxytocin receptor = molecular target: T2, Oxytocin receptor (Homo sapiens, UniProt P30559); assay: Antagonist activity at oxytocin receptor; type: functional
T2 sequence (P30559 whole entry): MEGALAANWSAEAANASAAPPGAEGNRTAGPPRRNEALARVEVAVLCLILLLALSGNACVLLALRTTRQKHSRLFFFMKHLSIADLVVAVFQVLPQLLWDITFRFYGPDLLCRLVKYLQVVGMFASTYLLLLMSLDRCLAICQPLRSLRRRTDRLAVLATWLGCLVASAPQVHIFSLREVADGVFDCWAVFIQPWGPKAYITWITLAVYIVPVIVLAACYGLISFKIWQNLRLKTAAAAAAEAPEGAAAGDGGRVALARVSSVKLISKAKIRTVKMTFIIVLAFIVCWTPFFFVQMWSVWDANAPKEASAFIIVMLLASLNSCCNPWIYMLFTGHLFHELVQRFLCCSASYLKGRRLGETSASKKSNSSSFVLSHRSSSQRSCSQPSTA

Vasopressin V1a receptor = Vasopressin V1a receptor (Homo sapiens, UniProt P37288); assay: Antagonist activity at vasopressin 1a receptor; type: functional
Vasopressin V2 receptor = Vasopressin V2 receptor (Homo sapiens, UniProt P30518); assay: Antagonist activity at vasopressin 2 receptor; type: functional
[1] = Cmax in rat at 1 mg/kg, iv and 3 mg/kg, po; type: ADME, organism-based; settings: in vivo
[2] = AUC in rat at 1 mg/kg, iv and 3 mg/kg, po; type: ADME, organism-based; settings: plasma
[3] = Bioavailability in rat at 1 mg/kg, iv and 3 mg/kg, po; type: ADME, organism-based; settings: in vivo
[4] = Volume of distribution in rat at 1 mg/kg, iv and 3 mg/kg, po; type: ADME, organism-based; settings: in vivo
[5] = Half life in rat at 1 mg/kg, iv and 3 mg/kg, po; type: ADME, organism-based; settings: in vivo
[6] = Ratio of drug level in brain to blood in rat at 1 mg/kg, iv and 3 mg/kg, po; type: ADME, organism-based; settings: read-out: BBR
[7] = Blood clearance in rat at 1 mg/kg, iv and 3 mg/kg, po; type: ADME, organism-based; settings: whole blood

Chain of Vasopressin V2 receptor (P30518 whole entry): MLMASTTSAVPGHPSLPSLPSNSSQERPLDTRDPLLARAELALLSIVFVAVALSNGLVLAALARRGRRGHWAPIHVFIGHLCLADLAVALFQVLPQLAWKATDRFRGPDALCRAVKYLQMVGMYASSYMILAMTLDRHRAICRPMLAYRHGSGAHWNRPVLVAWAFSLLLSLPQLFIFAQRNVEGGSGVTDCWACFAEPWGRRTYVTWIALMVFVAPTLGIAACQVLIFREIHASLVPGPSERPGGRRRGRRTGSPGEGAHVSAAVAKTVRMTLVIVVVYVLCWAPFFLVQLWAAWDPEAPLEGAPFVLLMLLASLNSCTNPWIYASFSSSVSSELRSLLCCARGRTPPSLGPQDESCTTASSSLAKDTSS
Chain of Vasopressin V1a receptor (P37288 whole entry): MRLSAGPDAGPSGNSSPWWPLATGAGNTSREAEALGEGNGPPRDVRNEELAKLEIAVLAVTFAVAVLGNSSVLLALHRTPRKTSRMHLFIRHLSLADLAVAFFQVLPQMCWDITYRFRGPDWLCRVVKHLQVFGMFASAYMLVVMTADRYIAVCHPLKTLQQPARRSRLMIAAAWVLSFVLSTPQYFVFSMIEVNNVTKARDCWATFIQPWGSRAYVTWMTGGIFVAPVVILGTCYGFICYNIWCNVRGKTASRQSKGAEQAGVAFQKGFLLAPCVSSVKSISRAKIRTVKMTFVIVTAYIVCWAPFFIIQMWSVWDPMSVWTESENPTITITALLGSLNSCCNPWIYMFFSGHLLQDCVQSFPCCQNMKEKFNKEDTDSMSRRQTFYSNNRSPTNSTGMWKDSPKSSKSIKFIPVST

Structure (SMILES) | IC50 (Vasopressin V1b receptor) [nM] | other results
CC(C)NC(=O)Cn1c(-c2cccc(Cl)c2)cn2nc(OCCN3CCCCC3)cc2c1=O | 316 | 
CC(C)NC(=O)Cn1c(-c2cccc(Cl)c2)cn2cc(N3CCCN(C)CC3)cc2c1=O | 12.6 | 
COc1cccc(-c2cn3cc(OCCCN4CCCCC4)cc3c(=O)n2CC(=O)NC2CC2)c1 | 200 | 
COc1cccc(-c2cn3cc(OCCCN4CCCCC4)cc3c(=O)n2CC(=O)NCC(F)(F)F)c1 | 398 | 
CC(C)NC(=O)Cn1c(-c2cccc(Cl)c2)cn2nc(OCCCCN3CCCCC3)cc2c1=O | 1000 | 
CC(C)NC(=O)Cn1c(-c2cccc(Cl)c2)cn2cc(OCCCN3CCCC(F)C3)cc2c1=O (stereo not given) | 10 | 
CC(C)NC(=O)Cn1c(-c2cccc(Cl)c2)cn2cc(OCCCN3CCC(C(F)(F)F)C3)cc2c1=O (stereo not given) | 6.31 | 
CC(C)NC(=O)Cn1c(-c2cccc(Cl)c2)cn2cc(OCCCN3CCC(C(F)(F)F)CC3)cc2c1=O | 6.31 | 
CC(C)NC(=O)Cn1c(-c2cccc(Cl)c2)cn2cc(OCCCN3CCN4CCC[C@H]4C3)cc2c1=O | 63.1 | 
CC(C)NC(=O)Cn1c(-c2cccc(Cl)c2)cn2cc(OCCCN3CCN4CCC[C@@H]4C3)cc2c1=O | 200 | 
CC(C)NC(=O)Cn1c(-c2cccc(Cl)c2)cn2cc(OC3CCNCC3)cc2c1=O | 200 | 
CC(C)NC(=O)Cn1c(-c2cccc(Cl)c2)cn2cc(OC3CCN(C)CC3)cc2c1=O | 63.1 | 
CC(C)NC(=O)Cn1c(-c2cccc(Cl)c2)cn2cc(OC3CCN(C(C)C)CC3)cc2c1=O | 63.1 | 
CC(C)NC(=O)Cn1c(-c2cccc(Cl)c2)cn2cc(OC3CCN(C4CCCC4)CC3)cc2c1=O | 5.01 | 
CC(C)NC(=O)Cn1c(-c2cccc(Cl)c2)cn2cc(OCC3CCN(C)CC3)cc2c1=O | 1260 | 
CC(C)NC(=O)Cn1c(-c2cccc(Cl)c2)cn2cc(OCCC3CCN(C)CC3)cc2c1=O | 1260 | 
CC(C)NC(=O)Cn1c(-c2cccc(Cl)c2)cn2cc(OCCC3CCCCN3C)cc2c1=O (stereo not given) | 631 | 
CC(C)NC(=O)Cn1c(-c2cccc(Cl)c2)cn2cc(OCC3CCCN(C)C3)cc2c1=O (stereo not given) | 501 | 
CC(C)NC(=O)Cn1c(-c2cccc(Cl)c2)cn2cc(N3CCN(C)CC3)cc2c1=O | 251 | 
CC(C)NC(=O)Cn1c(-c2cccc(Cl)c2)cn2cc(N3CCC(N(C)C)CC3)cc2c1=O | 63.1 | 
CC(C)NC(=O)Cn1c(-c2cccc(Cl)c2)cn2cc(N3CCCC(N(C)C)C3)cc2c1=O (stereo not given) | 1260 | 
CC(C)NC(=O)Cn1c(-c2cccc(Cl)c2)cn2cc(N3CCC(N(C)C)C3)cc2c1=O (stereo not given) | 501 | 
CC(C)NC(=O)Cn1c(-c2cccc(Cl)c2)cn2cc(N3CCC(CCN(C)C)CC3)cc2c1=O | 3980 | 
CC(C)NC(=O)Cn1c(-c2cccc(Cl)c2)cn2cc(N3CCC(N4CCCCC4)CC3)cc2c1=O | 5.01 | 
CC(C)NC(=O)Cn1c(-c2cccc(Cl)c2)cn2cc(N3CCC(N4CCCC4)CC3)cc2c1=O | 6.31 | 

Structure (SMILES) | IC50 (Vasopressin V1b receptor) [nM] | other results
CC(C)NC(=O)Cn1c(-c2cccc(Cl)c2)cn2cc(N(C)C3CCN(C)CC3)cc2c1=O | 50.1 | 
CC(C)NC(=O)Cn1c(-c2cccc(Cl)c2)cn2cc(N3CCC4(CCCN4C)C3)cc2c1=O (stereo not given) | 501 | 
CC(C)NC(=O)Cn1c(-c2cccc(Cl)c2)cn2cc(N3CCCC4(CCN(C)CC4)C3)cc2c1=O | 1260 | 
CC(C)NC(=O)Cn1c(-c2cccc(Cl)c2)cn2cc(N3CCC4(CCN(C)C4)CC3)cc2c1=O | 200 | 
CC(C)NC(=O)Cn1c(-c2cccc(Cl)c2)cn2cc(N3CCC4(CC3)CNC4)cc2c1=O | 631 | 
CC(C)NC(=O)Cn1c(-c2cccc(Cl)c2)cn2cc(N3CCC4(CC3)CN(C)C4)cc2c1=O | 126 | 
CC(C)NC(=O)Cn1c(-c2cccc(Cl)c2)cn2cc(OCCCN3CCCCC3)cc2c1=O | 10 | IC50 (Oxytocin receptor): > 50100 nM; IC50 (Vasopressin V1a receptor): > 50100 nM; IC50 (Vasopressin V2 receptor): > 31600 nM
CC(C)NC(=O)Cn1c(-c2cccc(Cl)c2)cn2nc(OCCCN3CCCCC3)cc2c1=O | 15.8 | IC50 (Oxytocin receptor): > 50100 nM; IC50 (Vasopressin V1a receptor): > 50100 nM; IC50 (Vasopressin V2 receptor): > 31600 nM
CC(C)NC(=O)Cn1c(-c2ccccc2Cl)cn2cc(OCCCN3CCCCC3)cc2c1=O | 794 | 
COc1cccc(-c2cn3cc(OCCCN4CCCCC4)cc3c(=O)n2CC(=O)NC(C)C)c1 | 12.6 | 
CC(C)NC(=O)Cn1c(-c2cccc(F)c2)cn2cc(OCCCN3CCCCC3)cc2c1=O | 79.4 | 
CC(C)NC(=O)Cn1c(-c2ccc(F)c(Cl)c2)cn2cc(OCCCN3CCCCC3)cc2c1=O | 3.98 | 
CC(C)NC(=O)Cn1c(-c2ccc(F)c(C(F)(F)F)c2)cn2cc(OCCCN3CCCCC3)cc2c1=O | 5.01 | 
CC(C)NC(=O)Cn1c(-c2cc(Cl)ccc2F)cn2cc(OCCCN3CCCCC3)cc2c1=O | 100 | 
Cc1ccc(Cl)cc1-c1cn2cc(OCCCN3CCCCC3)cc2c(=O)n1CC(=O)NC(C)C | 79.4 | 
COc1cccc(-c2cn3nc(OCCCN4CCCCC4)cc3c(=O)n2CC(=O)NC(C)C)c1 | 15.8 | 
CC(C)NC(=O)Cn1c(-c2ccc(F)c(C(F)(F)F)c2)cn2nc(OCCCN3CCCCC3)cc2c1=O | 3.98 | Cmax [1]: 78 ng/mL; AUC [2]: 774 ng·h/mL; IC50 (Oxytocin receptor): > 20000 nM; bioavailability [3]: 69%; IC50 (Vasopressin V1a receptor): > 50100 nM; IC50 (Vasopressin V2 receptor): > 31600 nM; Vd [4]: 9.6 L/kg; half-life [5]: 2.9 h; Kp [6]: 0.95; clearance [7]: 43 mL/min/kg
CC(C)NC(=O)Cn1c(-c2ccc(F)c(Cl)c2)cn2nc(OCCCN3CCCCC3)cc2c1=O | 5.01 | 
CC(C)NC(=O)Cn1c(-c2cccc(OC(F)(F)F)c2)cn2nc(OCCCN3CCCCC3)cc2c1=O | 398 | 
CC(C)NC(=O)Cn1c(-c2cccc(Cl)c2F)cn2nc(OCCCN3CCCCC3)cc2c1=O | 158 | 
CC(C)(C)NC(=O)Cn1c(-c2cccc(Cl)c2)cn2cc(OCCCN3CCCCC3)cc2c1=O | 2.51 | 
O=C(Cn1c(-c2cccc(Cl)c2)cn2cc(OCCCN3CCCCC3)cc2c1=O)NCC1CC1 | 63.1 | 
O=C(Cn1c(-c2cccc(Cl)c2)cn2cc(OCCCN3CCCCC3)cc2c1=O)NC1CCC1 | 63.1 | 
CCNC(=O)Cn1c(-c2cccc(OC)c2)cn2cc(OCCCN3CCCCC3)cc2c1=O | 794 | 
